# Results reported in paper PMC2928168, “Na^+-stimulated ATPase of alkaliphilic halotolerant cyanobacterium Aphanothece halophytica translocates Na^+ into proteoliposomes via Na^+ uniport mechanism” (BMC Biochemistry, 2010).
# Test system: T1, Na+-stimulated ATPase (likely F1F0-ATPase)
# T1 construct: gene atpD
# Assay: inorganic phosphate release, Lineweaver-Burk plot
# Format: biochemical, Aphanothece halophytica
# Settings: 20 mM Tris-HCl pH 7.6, 5 mM MgCl2, 10 mM NaCl; detergent-solubilised enzyme; read-out: apparent Km
smiles,measurement,value
Nc1ncnc2c1ncn2[C@@H]1O[C@H](COP(=O)(O)OP(=O)(O)OP(=O)(O)O)[C@@H](O)[C@H]1O [ATP],Km,1200 µM
